US20110230478A1 (Bayer ScienceCrop AG, priority 2008, published 2011)

assay: logP by HPLC on reversed-phase columns (C 18), EEC Directive 79/831 Annex V.A8; format: physicochemical; details: LC-MS, pH 2.7, 0.1% aqueous formic acid and acetonitrile

logP [b]	SMILES
1.17[b]	COCC(C)Nc1nc(Nc2ccc(NC3CC3)nc2)ncc1Cl (centres unmarked) [II-3]
1.52[b]	COCC(C)Nc1nc(Nc2ccc(OC)nc2)ncc1Br (centres unmarked) [II-1]

same assay, conditions: method marker [a]

logP	SMILES
1.69[a]	CCN(CC)c1ccc(Nc2ncc(Cl)c(NC3CCCCC3)n2)cc1 [Example 265]

same assay, conditions: method marker [a]; footnote not given

SMILES	logP
CC(C)c1ccc(Nc2ncc(Cl)c(NCCO)n2)cc1.Cl [Example 58]	1.6[a]
CC(=O)c1cccc(Nc2ncc(Cl)c(NC(C)(C)C)n2)c1 [Example 49]	2.15[a]
COCCNc1nc(Nc2cc(OC)c(OC)c(OC)c2)ncc1Cl [Example 1]	1.45[a];
CC(=O)c1cccc(Nc2ncc(Cl)c(NCCO)n2)c1.Cl [Example 56]	1.06[a]
CN(C)c1nc(Nc2ccc(S(=O)(=O)N(C)C)cc2)ncc1Cl [Example 27]	2.49[a]
CC(C)Nc1nc(Nc2cccc(S(=O)(=O)N(C)C)c2)ncc1Cl [Example 47]	2.08[a]
CCC(C)N(C)c1nc(Nc2ccccc2)ncc1Cl (centres unmarked) [Example 40]	2.85[a]
COCC(C)Nc1nc(Nc2cccc(C(C)=O)c2)ncc1Cl (centres unmarked) [Example 15]	1.72[a]
COCCNc1nc(Nc2cc(OC)cc(OC)c2)ncc1Cl.Cl [Example 62]	1.67[a];
COCCNc1nc(Nc2ccc(S(=O)(=O)N(C)C)cc2)ncc1Cl [Example 6]	1.9[a];
COCCNc1nc(Nc2ccc(C(C)C)cc2)ncc1Cl [Example 11]	2.09[a]

More lines, now with the values ahead:

logP	SMILES
2.13[a];	COCCNc1nc(Nc2cccc(Cl)c2)ncc1Cl [Example 2]
1.98[a]	CN(C)c1nc(Nc2ccc(S(C)(=O)=O)cc2)ncc1Cl [Example 28]
2.1[a];	COCC(C)Nc1nc(Nc2cccc(S(=O)(=O)N3CCOCC3)c2)ncc1Cl (centres unmarked) [Example 29]
1.84[a]	CC(=O)c1cccc(Nc2ncc(Cl)c(N(C)C)n2)c1.Cl [Example 42]
1.41[a]	COCCNc1nc(Nc2ccccc2)ncc1Cl [Example 3]
1.67[a]	COCCNc1nc(Nc2cc(OC)cc(OC)c2)ncc1Cl [Example 4]

same assay, conditions: method marker [b] (compound 257: pH2.7)

SMILES	logP
CCC(=O)N(C)c1cccc(Nc2ncc(Cl)c(NC(C)C)n2)c1 [Example 290]	1.76[b]
CCC(C)CNc1nc(Nc2ccccc2)ncc1Cl (centres unmarked) [Example 276]	2.37[b]
CCN(c1nc(Nc2ccccc2)ncc1Cl)C(C)C [Example 269]	3[b]
CC(C)CNc1nc(Nc2ccccc2)ncc1Cl [Example 279]	2.02[b]
CC(C)Nc1nc(Nc2cccc(C(F)F)c2)ncc1Cl [Example 281]	2.4[b]
CCCNc1nc(Nc2cccc(SC)c2)ncc1Cl [Example 284]	2.3[b]
CCCC(C)Nc1nc(Nc2ccccc2)ncc1Cl (centres unmarked) [Example 274]	2.41[b]
C=C(C)CNc1nc(Nc2ccccc2)ncc1Cl [Example 288]	2.62[b]

Second part, the molecule after the results:

logP	SMILES
0.7[b]	OCCNc1nc(Nc2ccccc2)ncc1Cl [Example 285]
2.95[b]	CC(C)(C)OC(=O)N1CCN(c2ccc(Nc3ncc(Cl)c(NC4CCCCC4)n3)cc2)CC1 [Example 264]
2.32[b]	CC(C)Nc1nc(Nc2cccc(CS(=O)(=O)NC(C)c3ccccc3)c2)ncc1Cl (centres unmarked) [Example 248]
2.34[b]	CCC(CC)Nc1nc(Nc2ccccc2)ncc1Cl [Example 275]
2.53[b]	Clc1cnc(Nc2ccccc2)nc1NC1CCCCC1 [Example 259]

same assay, conditions: method marker [b]; footnote not given; compound 68 value matches logP (pH 2.3)

SMILES	logP
COCC(C)Nc1nc(Nc2ccc(CC(=O)OC)cc2)ncc1Cl (centres unmarked) [Example 91]	1.71[b]
COCC(C)Nc1nc(Nc2ccc(OC)cc2)ncc1Br (centres unmarked) [Example 110]	1.63[b]
COCC(C)Nc1nc(Nc2ccc(SC(F)(F)F)cc2)ncc1Cl (centres unmarked) [Example 88]	3.81[b]
COCC(C)Nc1nc(Nc2ccc(Cl)c(S(C)(=O)=O)c2)ncc1Cl (centres unmarked) [Example 100]	2.09[b]
COCC(C)Nc1nc(Nc2ccc3c(c2)OCO3)ncc1Cl (centres unmarked) [Example 97]	1.56[b]
COCCNc1nc(Nc2cc(OC)c(OC)c(OC)c2)ncc1Cl [Example 1]	1.45[b]
COCC(C)Nc1nc(Nc2ccc(N(C)C(C)=O)cc2)ncc1Br (centres unmarked) [Example 119]	1.56[b]
COCC(C)Nc1nc(Nc2ccc3c(c2)OCO3)ncc1Br (centres unmarked) [Example 117]	1.64[b]
COCC(C)Nc1nc(Nc2cccc(SC)c2)ncc1Br (centres unmarked) [Example 77]	2.3[b]
COCCNc1nc(Nc2cc(OC)cc(OC)c2)ncc1Cl.Cl [Example 62]	1.67[b]
COCCNc1nc(Nc2ccc(S(=O)(=O)N(C)C)cc2)ncc1Cl [Example 6]	1.9[b]
COCC(C)Nc1nc(Nc2ccc(SC)c(Cl)c2)ncc1Cl (centres unmarked) [Example 89]	2.77[b]

Next, values leading:

logP	SMILES
2.36[b]	CCC(=O)c1ccc(Nc2ncc(Cl)c(NC(C)COC)n2)cc1 (centres unmarked) [Example 104]
2.13[b]	COCCNc1nc(Nc2cccc(Cl)c2)ncc1Cl [Example 2]
3.85[b]	COCC(C)Nc1nc(Nc2ccc3c(c2)OC(F)(F)C(F)(F)O3)ncc1Cl (centres unmarked) [Example 92]
1.54[b]	CC(C)Nc1nc(Nc2cccc(CN3CCN(C)C3=O)c2)ncc1Cl [Example 48]
3.14[b]	COCC(C)Nc1nc(Nc2cccc(OC(F)(F)F)c2)ncc1Cl (centres unmarked) [Example 87]
2.04[b]	COCC(C)Nc1nc(Nc2cccc(S(=O)(=O)N3CCOCC3)c2)ncc1Cl (centres unmarked) [Example 29]
1.46[b]	COCC(C)Nc1nc(Nc2ccc(OC)c(OC)c2)ncc1Cl (centres unmarked) [Example 84]
2.11[b]	COCC(C)Nc1nc(Nc2ccc3oc(=O)sc3c2)ncc1Cl (centres unmarked) [Example 106]
2.16[b]	COCC(C)Nc1nc(Nc2cccc(S(=O)(=O)N3CCOCC3)c2)ncc1Br (centres unmarked) [Example 120]

same assay, conditions: method marker [c]

SMILES	logP
CCC(=O)N(C)c1cccc(Nc2ncc(Cl)c(NC(C)C)n2)c1 [Example 290]	2.89[c];
CCCNc1nc(Nc2cccc(SC)c2)ncc1Cl [Example 284]	3.87[c];

Continued, values first:

logP	SMILES
1.83[c];	OCCNc1nc(Nc2ccccc2)ncc1Cl [Example 285]
3.57[c];	CC(C)Nc1nc(Nc2cccc(CS(=O)(=O)NC(C)c3ccccc3)c2)ncc1Cl (centres unmarked) [Example 248]

same assay, conditions: method marker [c]; footnote not given

logP	SMILES
2.56[c];	CC(C)Nc1nc(Nc2cccc(CN3CCN(C)C3=O)c2)ncc1Cl [Example 48]

same assay, conditions: pH 2.3, 0.1% aqueous phosphoric acid and acetonitrile

logP [a]	SMILES
1.53[a];	COCC(C)Nc1nc(Nc2ccc(OC)nc2)ncc1Br (centres unmarked) [II-1]

same assay, conditions: pH 2.3, logP [a]

chromatographic logP	SMILES
3.16	Clc1ncc(Cl)c(NC2CCCC2)n1 [Example V-12, 2,5-dichloro-N-(cyclopentyl)pyrimidine-4-amine]
2.68	CCN(C)c1nc(Cl)ncc1Cl [Example V-19, 2,5-dichloro-N-ethyl-N-methylpyrimidine-4-amine]
1.93	CCNc1nc(Cl)ncc1Cl [Example V-20, 2,5-dichloro-N-ethylpyrimidine-4-amine]

same assay, conditions: reversed-phase HPLC column (C 18), pH 2.3, pH 2.3, 0.1% aqueous phosphoric acid and acetonitrile; read-out: logP [a]

chromatographic logP	SMILES
3.78	CC(C)CN(C)c1nc(Cl)ncc1Cl [Example V-26, 2,5-dichloro-N-methyl-N-(2-methylpropyl)pyrimidine-4-amine]
3.47	CCCC(C)Nc1nc(Cl)ncc1Cl (centres unmarked) [Example V-27, 2,5-dichloro-N-(pent-2-yl)pyrimidine-4-amine]
2.05	CCN(C)S(=O)(=O)Cc1cccc([N+](=O)[O-])c1 [IV-1, N-Ethyl-N-methyl-1-(3-nitrophenyl)methanesulphonamide]
3.42	CCC(C)CNc1nc(Cl)ncc1Cl (centres unmarked) [Example V-24, 2,5-dichloro-N-(2-methylbutyl)pyrimidine-4-amine]
1.53	CC(NS(=O)(=O)Cc1cccc(N)c1)c1ccccc1 (centres unmarked) [IV-7, 1-(3-aminophenyl)-N-(1-phenylethyl)methanesulphonamide]
3.31	CCCN(C)c1nc(Cl)ncc1Cl [Example V-25, 2,5-dichloro-N-methyl-N-propylpyrimidine-4-amine]

same assay, conditions: values marked [a]; pH 2.3

logP	SMILES
3.45[a];	CSc1cccc(Nc2ncc(Cl)c(N(C)C(C)C)n2)c1 [Example 219]

same assay, conditions: values marked [b]; footnote not given

SMILES	logP
COCC(C)Nc1nc(Nc2ccc(C)c(SC)c2)ncc1Cl (centres unmarked) [Example 154]	2.33[b]
COCC(C)Nc1nc(Nc2ccc(N(C(=O)C(F)(F)F)C3CC3)cc2)ncc1Cl (centres unmarked) [Example 164]	2.55[b]
CC(C)Nc1nc(Nc2cccc(CS(=O)(=O)N(C)C(C)C)c2)ncc1Cl [Example 242]	2.18[b]
COCC(C)Nc1nc(Nc2cccc(C=O)c2)ncc1Cl (centres unmarked) [Example 244]	1.8[b]
CCOC(=O)Nc1cccc(Nc2ncc(Br)c(NC(C)COC)n2)c1 (racemic) [Example 129]	1.87[b]
CC(C)Nc1nc(Nc2ccc(O)cc2)ncc1Cl [Example 213]	1.24[b]
COCC(C)Nc1nc(Nc2cccc(NC(=O)C(C)(C)C)c2)ncc1Cl (centres unmarked) [Example 147]	1.9[b]
COC(=O)Nc1ccc(Nc2ncc(Cl)c(NC(C)C)n2)cc1 [Example 201]	1.53[b]
COCC(C)Nc1nc(Nc2ccc(S(C)(=O)=O)cc2)ncc1Cl (racemic) [Example 145]	1.85[b]
COC(=O)Nc1cccc(Nc2ncc(Cl)c(NC(C)C)n2)c1 [Example 204]	1.59[b]
COCC(C)Nc1nc(Nc2ccc(O)c(C)c2)ncc1Cl (centres unmarked) [Example 171]	1.39[b]
COCC(C)Nc1nc(Nc2ccc(CC(=O)C(C)(C)C)cc2)ncc1Cl (centres unmarked) [Example 151]	2.26[b]

The next lines start with the values.

logP	SMILES
1.1[b]	CNc1nc(Nc2cccc(CC#N)c2)ncc1Cl [Example 235]
1.47[b]	COCC(C)Nc1nc(Nc2cccc(C(=O)N(C)C)c2)ncc1Cl (centres unmarked) [Example 155]
1.38[b]	COCC(C)Nc1nc(Nc2ccc(NC(C)=O)c(OC)c2)ncc1Cl (racemic) [Example 140]
2.88[b]	CC(C)Nc1nc(Nc2ccc(SC(F)F)cc2)ncc1Cl [Example 212]
2.06[b]	CC(=O)c1ccc(Nc2ncc(Cl)c(NC(C)C)n2)cc1 [Example 200]
1.81[b]	CCOC(=O)Nc1cccc(Nc2ncc(Cl)c(NC(C)C)n2)c1 [Example 216]
1.99[b]	COCC(C)Nc1nc(Nc2cccc(C(=O)NC(C)(C)C)c2)ncc1Cl (centres unmarked) [Example 157]
1.51[b]	COCC(C)Nc1nc(Nc2ccc(C(=O)N(C)C)cc2)ncc1Cl (centres unmarked) [Example 148]
3.26[b]	CC(C)Nc1nc(Nc2cccc(OC(F)(F)F)c2)ncc1Cl [Example 185]

same assay, conditions: values marked [c]; footnote not given

logP	SMILES
3.44[c];	CC(C)Nc1nc(Nc2cccc(CS(=O)(=O)N(C)C(C)C)c2)ncc1Cl [Example 242]
2.75[c];	COCC(C)Nc1nc(Nc2cccc(C=O)c2)ncc1Cl (centres unmarked) [Example 244]
4.64[c]	CSc1cccc(Nc2ncc(Cl)c(N(C)C(C)C)n2)c1 [Example 219]

same assay, conditions: values marked [d]; footnote not given

logP	SMILES
3.39[d]	CC(C)CC(C)N(C)c1nc(Nc2ccccc2)ncc1Br (centres unmarked) [Example 233]
